Measured values reported in the kinase profiling compilation of Christmann-Franck et al. (2016).

How the values were obtained:
Assay in all cases: radiometric filter-binding kinase assay, Kinase HotSpot
Settings in all cases: compound 0.5 µM; ATP 10 µM
EPHA7 (human) = EPHA7 (human) (UniProt Q15375)
MAP2K1 (human) = MAP2K1 (human) (UniProt Q02750)
BRSK1 (human) = BRSK1 (human) (UniProt Q8TDC3)
PRKACG (human) = PRKACG (human) (UniProt P22612)
SRPK2 (human) = SRPK2 (human) (UniProt P78362)
STK33 (human) = STK33 (human) (UniProt Q9BYT3)
MYO3B (human) = MYO3B (human) (UniProt Q8WXR4)
INSRR (human) = INSRR (human) (UniProt P14616)
DYRK3 (human) = DYRK3 (human) (UniProt O43781)
CHEK2 (human) = CHEK2 (human) (UniProt O96017)
MAP4K2 (human) = MAP4K2 (human) (UniProt Q12851)
DDR2 (human) = DDR2 (human) (UniProt Q16832)
NEK2 (human) = NEK2 (human) (UniProt P51955)
GRK7 (human) = GRK7 (human) (UniProt Q8WTQ7)
Sequence of GRK7 (human) (Q8WTQ7 whole entry, looked up): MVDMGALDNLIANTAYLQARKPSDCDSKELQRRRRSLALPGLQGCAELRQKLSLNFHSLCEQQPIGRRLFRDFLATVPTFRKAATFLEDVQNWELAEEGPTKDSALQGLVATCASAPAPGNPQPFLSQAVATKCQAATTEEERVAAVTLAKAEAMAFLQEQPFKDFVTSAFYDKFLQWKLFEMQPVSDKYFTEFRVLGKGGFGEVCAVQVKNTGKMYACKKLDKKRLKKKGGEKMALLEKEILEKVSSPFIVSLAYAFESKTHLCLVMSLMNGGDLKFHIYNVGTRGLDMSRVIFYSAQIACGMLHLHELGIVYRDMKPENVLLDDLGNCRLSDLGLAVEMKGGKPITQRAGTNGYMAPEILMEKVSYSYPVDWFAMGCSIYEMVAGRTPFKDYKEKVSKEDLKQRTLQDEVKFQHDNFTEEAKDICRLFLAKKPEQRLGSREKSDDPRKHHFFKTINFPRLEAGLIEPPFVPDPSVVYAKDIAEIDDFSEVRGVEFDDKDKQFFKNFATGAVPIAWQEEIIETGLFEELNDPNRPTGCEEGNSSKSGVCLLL

CDK1 CCNB1 (human) = CDK1 CCNB1 (human) (UniProt P06493+P14635)
MAP3K5 (human) = MAP3K5 (human) (UniProt Q99683)
Sequence of MAP3K5 (human) (Q99683 whole entry, looked up): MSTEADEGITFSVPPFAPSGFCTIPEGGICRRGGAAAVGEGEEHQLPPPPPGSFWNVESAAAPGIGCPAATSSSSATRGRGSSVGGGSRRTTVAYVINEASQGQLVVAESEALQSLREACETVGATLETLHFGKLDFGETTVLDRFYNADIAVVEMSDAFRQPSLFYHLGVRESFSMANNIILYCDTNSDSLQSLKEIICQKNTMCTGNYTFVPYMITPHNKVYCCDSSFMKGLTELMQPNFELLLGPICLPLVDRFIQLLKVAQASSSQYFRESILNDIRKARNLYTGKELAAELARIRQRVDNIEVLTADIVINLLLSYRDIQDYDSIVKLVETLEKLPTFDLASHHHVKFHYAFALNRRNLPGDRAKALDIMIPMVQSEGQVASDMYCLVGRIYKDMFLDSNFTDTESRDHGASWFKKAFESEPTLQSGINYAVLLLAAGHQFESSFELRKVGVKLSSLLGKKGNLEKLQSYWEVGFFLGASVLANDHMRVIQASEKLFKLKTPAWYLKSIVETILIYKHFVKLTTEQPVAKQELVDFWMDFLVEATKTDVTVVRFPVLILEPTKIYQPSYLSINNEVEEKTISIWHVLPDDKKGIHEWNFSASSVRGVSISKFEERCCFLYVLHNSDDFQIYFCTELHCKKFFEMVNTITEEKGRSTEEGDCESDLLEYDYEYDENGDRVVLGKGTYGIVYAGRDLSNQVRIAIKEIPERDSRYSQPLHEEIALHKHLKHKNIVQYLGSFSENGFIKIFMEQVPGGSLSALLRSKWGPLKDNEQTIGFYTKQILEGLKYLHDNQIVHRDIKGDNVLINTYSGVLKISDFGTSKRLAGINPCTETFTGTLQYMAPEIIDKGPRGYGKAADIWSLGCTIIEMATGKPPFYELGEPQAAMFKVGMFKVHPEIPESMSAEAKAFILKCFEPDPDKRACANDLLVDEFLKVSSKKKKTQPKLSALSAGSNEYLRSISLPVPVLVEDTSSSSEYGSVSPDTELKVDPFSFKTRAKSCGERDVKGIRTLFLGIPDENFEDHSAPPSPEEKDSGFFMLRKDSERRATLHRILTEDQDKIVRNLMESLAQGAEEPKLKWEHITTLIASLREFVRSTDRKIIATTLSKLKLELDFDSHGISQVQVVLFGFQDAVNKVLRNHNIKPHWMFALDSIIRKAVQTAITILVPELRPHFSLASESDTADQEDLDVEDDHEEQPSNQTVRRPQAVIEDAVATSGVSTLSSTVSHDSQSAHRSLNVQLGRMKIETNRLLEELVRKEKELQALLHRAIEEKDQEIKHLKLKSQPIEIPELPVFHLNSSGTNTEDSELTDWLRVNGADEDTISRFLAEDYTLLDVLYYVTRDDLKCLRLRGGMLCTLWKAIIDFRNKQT

EPHA1 (human) = EPHA1 (human) (UniProt P21709)
Sequence of EPHA1 (human) (P21709 whole entry, looked up): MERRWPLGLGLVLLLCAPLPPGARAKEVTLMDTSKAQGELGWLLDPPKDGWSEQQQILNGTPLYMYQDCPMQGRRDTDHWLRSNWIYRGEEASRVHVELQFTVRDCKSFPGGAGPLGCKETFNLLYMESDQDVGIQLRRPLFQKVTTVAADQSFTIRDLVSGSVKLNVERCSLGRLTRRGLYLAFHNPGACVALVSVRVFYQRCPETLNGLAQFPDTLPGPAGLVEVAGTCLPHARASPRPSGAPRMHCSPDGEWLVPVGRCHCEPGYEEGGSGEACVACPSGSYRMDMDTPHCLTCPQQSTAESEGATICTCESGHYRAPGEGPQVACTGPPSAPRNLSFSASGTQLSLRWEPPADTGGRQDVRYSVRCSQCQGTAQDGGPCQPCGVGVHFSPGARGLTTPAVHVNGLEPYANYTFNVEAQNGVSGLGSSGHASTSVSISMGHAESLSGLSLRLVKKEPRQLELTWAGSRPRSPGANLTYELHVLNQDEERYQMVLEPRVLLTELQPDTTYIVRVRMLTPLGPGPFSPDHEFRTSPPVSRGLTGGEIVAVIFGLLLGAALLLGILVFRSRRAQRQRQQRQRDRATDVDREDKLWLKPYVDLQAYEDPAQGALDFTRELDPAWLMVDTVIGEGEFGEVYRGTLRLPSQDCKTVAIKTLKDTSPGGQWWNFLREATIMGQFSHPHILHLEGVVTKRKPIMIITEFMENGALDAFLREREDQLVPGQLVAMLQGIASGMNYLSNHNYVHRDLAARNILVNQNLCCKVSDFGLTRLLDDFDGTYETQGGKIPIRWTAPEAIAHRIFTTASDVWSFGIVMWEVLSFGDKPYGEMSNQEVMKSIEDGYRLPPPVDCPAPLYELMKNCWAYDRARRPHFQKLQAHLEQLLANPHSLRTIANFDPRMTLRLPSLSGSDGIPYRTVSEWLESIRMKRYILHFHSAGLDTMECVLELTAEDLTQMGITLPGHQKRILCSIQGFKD

TEK (human) = TEK (human) (UniProt Q02763)
STK39 (human) = STK39 (human) (UniProt Q9UEW8)
AXL (human) = AXL (human) (UniProt P30530)
PRKCB2 (human) = PRKCB2 (human) (UniProt P05771)
CAMKK1 (human) = CAMKK1 (human) (UniProt Q8N5S9)
DAPK3 (human) = DAPK3 (human) (UniProt O43293)
PRKCZ (human) = PRKCZ (human) (UniProt Q05513)
PRKX (human) = PRKX (human) (UniProt P51817)
CSNK1G2 (human) = CSNK1G2 (human) (UniProt P78368)
GRK5 (human) = GRK5 (human) (UniProt P34947)
PHKG1 (human) = PHKG1 (human) (UniProt Q16816)
PRKCD (human) = PRKCD (human) (UniProt Q05655)
LTK (human) = LTK (human) (UniProt P29376)
Sequence of LTK (human) (P29376 whole entry, looked up): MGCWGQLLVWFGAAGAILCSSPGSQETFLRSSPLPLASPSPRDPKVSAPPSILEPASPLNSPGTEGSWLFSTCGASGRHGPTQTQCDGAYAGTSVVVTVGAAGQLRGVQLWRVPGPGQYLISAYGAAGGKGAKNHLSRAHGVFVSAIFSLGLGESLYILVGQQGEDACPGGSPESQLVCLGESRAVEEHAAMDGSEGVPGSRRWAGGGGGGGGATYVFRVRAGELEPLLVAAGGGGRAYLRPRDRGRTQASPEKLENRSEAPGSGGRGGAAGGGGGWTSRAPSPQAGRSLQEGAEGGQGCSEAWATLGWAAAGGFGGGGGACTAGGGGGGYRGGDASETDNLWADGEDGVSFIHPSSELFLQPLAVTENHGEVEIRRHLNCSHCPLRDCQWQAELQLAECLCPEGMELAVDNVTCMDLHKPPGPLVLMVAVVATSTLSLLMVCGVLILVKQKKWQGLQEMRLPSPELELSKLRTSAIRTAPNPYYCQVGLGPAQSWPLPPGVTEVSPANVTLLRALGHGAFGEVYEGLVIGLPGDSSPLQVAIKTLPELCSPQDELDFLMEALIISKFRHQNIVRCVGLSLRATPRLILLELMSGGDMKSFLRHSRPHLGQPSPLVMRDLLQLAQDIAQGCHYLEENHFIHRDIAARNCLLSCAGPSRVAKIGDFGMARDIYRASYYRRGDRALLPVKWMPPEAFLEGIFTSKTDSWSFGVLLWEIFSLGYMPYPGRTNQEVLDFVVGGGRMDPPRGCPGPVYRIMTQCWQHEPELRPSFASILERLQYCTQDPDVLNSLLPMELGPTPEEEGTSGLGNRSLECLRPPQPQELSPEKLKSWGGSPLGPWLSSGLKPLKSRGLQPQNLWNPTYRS

SRPK3 (human) = SRPK3 (human) (UniProt Q9UPE1)
VRK1 (human) = VRK1 (human) (UniProt Q99986)
MARK2 (human) = MARK2 (human) (UniProt Q7KZI7)
BMX (human) = BMX (human) (UniProt P51813)
ADRBK1 (human) = ADRBK1 (human) (UniProt P25098)
FRK (human) = FRK (human) (UniProt P42685)
DYRK2 (human) = DYRK2 (human) (UniProt Q92630)
DYRK4 (human) = DYRK4 (human) (UniProt Q9NR20)
Sequence of DYRK4 (human) (Q9NR20 whole entry, looked up): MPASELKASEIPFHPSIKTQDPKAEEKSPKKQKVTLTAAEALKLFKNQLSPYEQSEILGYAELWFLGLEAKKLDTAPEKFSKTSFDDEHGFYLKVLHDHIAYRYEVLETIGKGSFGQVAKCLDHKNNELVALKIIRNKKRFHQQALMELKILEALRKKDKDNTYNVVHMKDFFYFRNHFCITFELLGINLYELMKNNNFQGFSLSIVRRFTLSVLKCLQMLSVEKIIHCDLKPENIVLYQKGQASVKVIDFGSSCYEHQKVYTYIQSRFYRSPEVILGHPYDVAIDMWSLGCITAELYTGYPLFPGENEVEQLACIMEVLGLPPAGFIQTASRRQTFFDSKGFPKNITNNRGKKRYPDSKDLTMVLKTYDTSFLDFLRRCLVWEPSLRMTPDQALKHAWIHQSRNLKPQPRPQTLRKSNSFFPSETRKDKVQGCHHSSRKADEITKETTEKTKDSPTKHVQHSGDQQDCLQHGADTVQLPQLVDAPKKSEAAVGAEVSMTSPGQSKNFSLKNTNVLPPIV

BTK (human) = BTK (human) (UniProt Q06187)
TXK (human) = TXK (human) (UniProt P42681)
Sequence of TXK (human) (P42681 whole entry, looked up): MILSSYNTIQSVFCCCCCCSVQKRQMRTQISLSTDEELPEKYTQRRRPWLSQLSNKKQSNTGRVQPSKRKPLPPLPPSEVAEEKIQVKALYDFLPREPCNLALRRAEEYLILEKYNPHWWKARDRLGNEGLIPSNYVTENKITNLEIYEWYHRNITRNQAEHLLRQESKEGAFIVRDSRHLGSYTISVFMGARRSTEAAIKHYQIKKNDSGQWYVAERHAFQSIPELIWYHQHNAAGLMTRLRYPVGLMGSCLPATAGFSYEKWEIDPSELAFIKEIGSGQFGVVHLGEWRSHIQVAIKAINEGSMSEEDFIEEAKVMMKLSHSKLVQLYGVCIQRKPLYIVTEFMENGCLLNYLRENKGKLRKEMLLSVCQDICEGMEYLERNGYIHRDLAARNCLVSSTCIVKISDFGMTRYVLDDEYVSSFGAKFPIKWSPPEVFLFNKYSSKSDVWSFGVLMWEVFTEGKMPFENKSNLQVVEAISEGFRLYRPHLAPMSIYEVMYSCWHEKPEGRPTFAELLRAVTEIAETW

MAP3K14 (human) = MAP3K14 (human) (UniProt Q99558)

CCC(=O)Nc1ccc2ncnc(Nc3cccc(Br)c3)c2c1
residual activity (EPHA7 (human)): 102% | residual activity (MAP2K1 (human)): 105% | residual activity (BRSK1 (human)): 83.3% | residual activity (PRKACG (human)): 95.5% | residual activity (SRPK2 (human)): 88.6% | residual activity (STK33 (human)): 94.1% | residual activity (MYO3B (human)): 135% | residual activity (INSRR (human)): 98.4% | residual activity (DYRK3 (human)): 92.3% | residual activity (CHEK2 (human)): 87.1% | residual activity (MAP4K2 (human)): 90.5% | residual activity (DDR2 (human)): 109% | residual activity (NEK2 (human)): 87.5% | residual activity (GRK7 (human)): 105% | residual activity (CDK1 CCNB1 (human)): 89.5% | residual activity (MAP3K5 (human)): 102% | residual activity (EPHA1 (human)): 89.5% | residual activity (TEK (human)): 91.2% | residual activity (STK39 (human)): 96.1% | residual activity (AXL (human)): 126% | residual activity (PRKCB2 (human)): 101% | residual activity (CAMKK1 (human)): 99.8% | residual activity (DAPK3 (human)): 104% | residual activity (PRKCZ (human)): 95.7% | residual activity (PRKX (human)): 95.7% | residual activity (CSNK1G2 (human)): 98.1% | residual activity (GRK5 (human)): 107% | residual activity (PHKG1 (human)): 92.4% | residual activity (PRKCD (human)): 93.8% | residual activity (LTK (human)): 81% | residual activity (SRPK3 (human)): 97% | residual activity (VRK1 (human)): 94.4% | residual activity (MARK2 (human)): 73.5% | residual activity (BMX (human)): 98.7% | residual activity (ADRBK1 (human)): 112% | residual activity (FRK (human)): 66.8% | residual activity (DYRK2 (human)): 90.6% | residual activity (DYRK4 (human)): 113% | residual activity (BTK (human)): 89.4% | residual activity (TXK (human)): 90.5% | residual activity (MAP3K14 (human)): 116%

Nc1ncnc2c1c(-c1ccc(Oc3ccccc3)cc1)cn2C1CCCC1
residual activity (EPHA7 (human)): 98.3% | residual activity (MAP2K1 (human)): 93% | residual activity (BRSK1 (human)): 99.7% | residual activity (PRKACG (human)): 106% | residual activity (SRPK2 (human)): 93.4% | residual activity (STK33 (human)): 92.3% | residual activity (MYO3B (human)): 103% | residual activity (INSRR (human)): 81.9% | residual activity (DYRK3 (human)): 94.9% | residual activity (CHEK2 (human)): 76.6% | residual activity (MAP4K2 (human)): 89.4% | residual activity (DDR2 (human)): 95% | residual activity (NEK2 (human)): 88.5% | residual activity (GRK7 (human)): 114% | residual activity (CDK1 CCNB1 (human)): 110% | residual activity (MAP3K5 (human)): 99.1% | residual activity (EPHA1 (human)): 101% | residual activity (TEK (human)): 94.3% | residual activity (STK39 (human)): 84.8% | residual activity (AXL (human)): 113% | residual activity (PRKCB2 (human)): 107% | residual activity (CAMKK1 (human)): 99.1% | residual activity (DAPK3 (human)): 114% | residual activity (PRKCZ (human)): 107% | residual activity (PRKX (human)): 102% | residual activity (CSNK1G2 (human)): 93.7% | residual activity (GRK5 (human)): 102% | residual activity (PHKG1 (human)): 91.1% | residual activity (PRKCD (human)): 99.6% | residual activity (LTK (human)): 86.3% | residual activity (SRPK3 (human)): 95.7% | residual activity (VRK1 (human)): 84.8% | residual activity (MARK2 (human)): 86.4% | residual activity (BMX (human)): 10.1% | residual activity (ADRBK1 (human)): 97.8% | residual activity (FRK (human)): 6.25% | residual activity (DYRK2 (human)): 96.5% | residual activity (DYRK4 (human)): 91.6% | residual activity (BTK (human)): 4.56% | residual activity (TXK (human)): 17.3% | residual activity (MAP3K14 (human)): 113%
